The target in one assay is T1, His6-TEV-PPARγ-(234-505) (Homo sapiens, UniProt P37231).
T1 construct: The His6-TEV-PPARγ-(234-505) protein for assay was expressed and purified; TEV cleavage site (N); made in house
T1 sequence (P37231 234-505): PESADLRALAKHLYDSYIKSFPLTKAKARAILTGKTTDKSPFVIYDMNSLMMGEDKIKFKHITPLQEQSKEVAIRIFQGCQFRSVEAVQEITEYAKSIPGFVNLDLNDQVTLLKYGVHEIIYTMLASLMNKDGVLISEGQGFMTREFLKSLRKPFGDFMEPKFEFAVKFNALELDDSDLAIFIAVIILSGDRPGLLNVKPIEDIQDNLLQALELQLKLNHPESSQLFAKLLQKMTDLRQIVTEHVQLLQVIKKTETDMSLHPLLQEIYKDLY
The assay is described as follows: TR-FRET Assay to Measure Co-R Peptide Recruitment to PPARγ. It is filed as biochemical. The following applies: Co-R peptide (SMRT-ID2) recruitment, top final concentration 20 μM, read-out: TR-FRET i-Ag, AC50. The method, boiled down:
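Corepressor recruitment is measured by adding terbium-labeled anti-His antibody and FITC SMRT-ID2 peptide, at 5 and 200 nM final, after a 20-minute room-temperature protein–compound incubation. After one further hour, signal is converted to percent response between DMSO and 500 nM T0070907 wells.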
A general note: TR-FRET usually uses a lanthanide donor and a delayed reading to cut background.

The subject of the next assay is UM-UC-9 engineered cells. Kind of assay: Cell proliferation / short-term viability assay, CellTiter-Glo 144 h. It is filed as cell-based, human. The conditions noted are these: read-out: CTGlo 144 h UMUC9.5, G150. The method, boiled down:
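Viability read by CellTiter-Glo 2.0 luminescence at day 7 versus DMSO-vehicle wells and a T0 plate measured on day 0. Cells: UM-UC-9 engineered assay-ready stocks, 500 cells/well in high-glucose DMEM with 10% FBS, 37° C, 5% CO2.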

Read-outs that look alike come from different tables or passages of the source.

On to `COc1cc(-c2cc(C(=O)N3CCC(C(=O)NC4(C#N)CCC4)CC3)n[nH]2)c(Cl)cn1` [Example 128, 1-(5-(5-chloro-2-methoxypyridin-4-yl)-1H-pyrazole-3-carbonyl)-N-(1-cyanocyclobutyl)piperidine-4-carboxamide], for which, on His6-TEV-PPARγ-(234-505), the AC50 is 864 nM. Also, in the assay with UM-UC-9 engineered cells (Homo sapiens, UM-UC-9, 144 h), the IC50 was determined as 2560 nM.
On to `COc1cc(-c2cc(C(=O)N3CC[C@H](C(=O)NC4CCCn5cc(C(F)(F)F)nc54)CC34CC4)n[nH]2)c(F)cn1` (single isomer, unassigned) [Example 502-B], for which the AC50 on His6-TEV-PPARγ-(234-505) is 5.3 nM. Further, the IC50 in the assay on UM-UC-9 engineered cells came out at 66.1 nM.
As to `Cc1cc(-c2cc(C(=O)N3[C@@H]4CC[C@H]3C[C@H](C(=O)NCc3cccc(Cl)c3)C4)n[nH]2)c(F)cn1` [Example 268, (1R,3S,5S)—N-[(3-chlorophenyl)methyl]-8-[5-(5-fluoro-2-methylpyridin-4-yl)-1H-pyrazole-3-carbonyl]-8-azabicyclo[3.2.1]octane-3-carboxamide], at His6-TEV-PPARγ-(234-505), the AC50 came out at 7 nM. The IC50 with UM-UC-9 engineered cells (Homo sapiens, UM-UC-9, 144 h) came to 36.5 nM.
Taken in the same sequence, the figures for `COc1cc(-c2cc(C(=O)N3CC[C@H](C(=O)NCc4conc4C(F)(F)F)CC34CC4)[nH]n2)c(F)cn1` [Example 505, (S)-4-(3-(5-fluoro-2-methoxypyridin-4-yl)-1H-pyrazole-5-carbonyl)-N-((3-(trifluoromethyl)isoxazol-4-yl)methyl)-4-azaspiro[2.5]octane-7-carboxamide] were 6.9 nM and 10.3 nM.
Taken in the same sequence, the figures for `COc1cc(-c2cc(C(=O)N3CC[C@H](C(=O)NCc4nc(C)nn4C(C)C)CC34CC4)n[nH]2)c(F)cn1` [Example 473, (S)-4-(5-(5-fluoro-2-methoxypyridin-4-yl)-1H-pyrazole-3-carbonyl)-N-((1-isopropyl-3-methyl-1H-1,2,4-triazol-5-yl)methyl)-4-azaspiro[2.5]octane-7-carboxamide] were 443 nM and 3390 nM.
On to `COc1cc(-c2cc(C(=O)N3CCC(C(=O)NC4CCC(C)CC4)CC3)n[nH]2)c(F)cn1` (single isomer, unassigned) [Example 114-B], for which, at His6-TEV-PPARγ-(234-505) (listed as 114b), the AC50 was determined as 15.8 nM. Further, the IC50 in the assay with UM-UC-9 engineered cells (listed as 114b) came out at 26.8 nM.
In the case of `COc1cc(-c2cc(C(=O)N3CC[C@H](C(=O)NC4CCN(c5ccnc6[nH]ncc56)C4)CC34CC4)n[nH]2)c(F)cn1` (single isomer, unassigned) [Example 450-A], the AC50 at His6-TEV-PPARγ-(234-505) was 3.3 nM. Further, the IC50 in the assay on UM-UC-9 engineered cells was 162 nM.
In the case of `COc1cc(-c2cc(C(=O)N3CCC(C(=O)NC4[C@@H]5CCC[C@H]4CC5)CC3)n[nH]2)c(F)cn1` (mixture of isomers) [Example 165, N-(bicyclo[3.2.1]octan-8-yl)-1-(5-(5-fluoro-2-methoxypyridin-4-yl)-1H-pyrazole-3-carbonyl)piperidine-4-carboxamide], on His6-TEV-PPARγ-(234-505), the AC50 was 179 nM. Moreover, in the assay on UM-UC-9 engineered cells (Homo sapiens, UM-UC-9, 144 h), the IC50 was determined as 435 nM.
With `COc1cc(-c2cc(C(=O)N3CCC(C(=O)NCc4ncc(N5CCNC6CC65)cn4)CC34CC4)n[nH]2)c(F)cn1` (mixture of isomers) [Example 469, (S)—N-((5-((1S,6R)-2,5-diazabicyclo[4.1.0]heptan-2-yl)pyrimidin-2-yl)methyl)-4-(3-(5-fluoro-2-methoxypyridin-4-yl)-1H-pyrazole-5-carbonyl)-4-azaspiro[2.5]octane-7-carboxamide and (S)—N-((5-((1R,6S)-2,5-diazabicyclo[4.1.0]heptan-2-yl)pyrimidin-2-yl)methyl)-4-(3-(5-fluoro-2-methoxypyridin-4-yl)-1H-pyrazole-5-carbonyl)-4-azaspiro[2.5]octane-7-carboxamide], the AC50 at His6-TEV-PPARγ-(234-505) was determined as 78.5 nM. In addition, in the assay with UM-UC-9 engineered cells, the IC50 is 9020 nM.
`COc1cc(-c2cc(C(=O)N3CC[C@H](C(=O)N[C@H]4CC[C@@](O)(C(F)(F)F)CC4)CC34CC4)n[nH]2)c(F)cn1` (single isomer, unassigned) [Example 169-B]: on His6-TEV-PPARγ-(234-505), the AC50 amounted to 2.3 nM. Moreover, in the assay on UM-UC-9 engineered cells (Homo sapiens, UM-UC-9, 144 h), the IC50 was determined as 1.4 nM.
Turning to `COc1cc(-c2cc(C(=O)N3CCC(NC(=O)C4CCC(O)(C(F)(F)F)CC4)CC34CC4)n[nH]2)c(F)cn1` (mixture of isomers) [Example 347], the AC50 at His6-TEV-PPARγ-(234-505) came out at 317 nM. Besides, the IC50 with UM-UC-9 engineered cells was 1860 nM.
Taken in the same sequence, the figures for `COc1cc(-c2cc(C(=O)N3CCC(C(=O)NCC4CCn5cncc5C4)CC34CC4)[nH]n2)c(F)cn1` (mixture of isomers) [Example 342, (8)-4-(3-(5-fluoro-2-methoxypyridin-4-yl)-1H-pyrazole-5-carbonyl)-N—(((R)-5,6,7,8-tetrahydroimidazo[1,5-a]pyridin-7-yl)methyl)-4-azaspiro[2.5]octane-7-carboxamide and (S)-4-(3-(5-fluoro-2-methoxypyridin-4-yl)-1H-pyrazole-5-carbonyl)-N—(((S)-5,6,7,8-tetrahydroimidazo[1,5-a]pyridin-7-yl)methyl)-4-azaspiro[2.5]octane-7-carboxamide] were 78.3 nM and 1130 nM.
On the same counts, the results for `COc1cc(-c2cc(C(=O)N3CC[C@H](C(=O)Nc4cnn5c4CC(O)CC5)CC34CC4)n[nH]2)c(F)cn1` (single isomer, unassigned) [Example 514-B] are 59.6 nM and 4310 nM.
In the case of `COc1cc(-c2cc(C(=O)N3CCC(C(=O)NC4CCC(C)CC4)CC3)n[nH]2)ccn1` (mixture of isomers) [Example 105, 1-(5-(2-methoxypyridin-4-yl)-1H-pyrazole-3-carbonyl)-N-(4-methylcyclohexyl)piperidine-4-carboxamide], the AC50 at His6-TEV-PPARγ-(234-505) was 537 nM. The IC50 in the assay with UM-UC-9 engineered cells (Homo sapiens, UM-UC-9, 144 h) was determined as 1020 nM.
Turning to `COc1cc(-c2cc(C(=O)N3CCC(C(=O)NCc4nccnc4C4CC4CO)CC34CC4)n[nH]2)c(F)cn1` (mixture of isomers) [Example 481, (S)-4-(5-(5-fluoro-2-methoxypyridin-4-yl)-1H-pyrazole-3-carbonyl)-N-((3-((1S,2S)-2-(hydroxymethyl)cyclopropyl)pyrazin-2-yl)methyl)-4-azaspiro[2.5]octane-7-carboxamide and (S)-4-(5-(5-fluoro-2-methoxypyridin-4-yl)-1H-pyrazole-3-carbonyl)-N-((3-((1R,2R)-2-(hydroxymethyl)cyclopropyl)pyrazin-2-yl)methyl)-4-azaspiro[2.5]octane-7-carboxamide], the AC50 at His6-TEV-PPARγ-(234-505) came out at 129 nM. Further, the IC50 in the assay with UM-UC-9 engineered cells was determined as 1220 nM.
Regarding `COc1cc(-c2cc(C(=O)N3CC[C@H](C(=O)NCc4ncc(C(C)(C)O)cc4Cl)CC34CC4)n[nH]2)c(F)cn1` [Example 364, (S)—N-((3-chloro-5-(2-hydroxypropan-2-yl)pyridin-2-yl)methyl)-4-(5-(5-fluoro-2-methoxypyridin-4-yl)-1H-pyrazole-3-carbonyl)-4-azaspiro[2.5]octane-7-carboxamide], the AC50 on His6-TEV-PPARγ-(234-505) was 13.1 nM. In the assay on UM-UC-9 engineered cells (Homo sapiens, UM-UC-9, 144 h), the IC50 amounted to 56.2 nM.
For `COc1cc(-c2cc(C(=O)N3CC[C@H](C(=O)NC4CCN(C5COC5)CC4)CC34CC4)n[nH]2)c(F)cn1` [Example 417, (S)-4-(5-(5-fluoro-2-methoxypyridin-4-yl)-1H-pyrazole-3-carbonyl)-N-(1-(oxetan-3-yl)piperidin-4-yl)-4-azaspiro[2.5]octane-7-carboxamide], at His6-TEV-PPARγ-(234-505), the AC50 worked out at 681 nM. Also, the IC50 in the assay on UM-UC-9 engineered cells (Homo sapiens, UM-UC-9, 144 h) amounted to 1160 nM.
On the same counts, the results for `CCC1CCC(NC(=O)C2CCN(C(=O)c3cc(-c4ccnc(OC)c4)[nH]n3)CC2)CC1` (racemic) [Example 108, N-(4-ethylcyclohexyl)-1-(5-(2-methoxypyridin-4-yl)-1H-pyrazole-3-carbonyl)piperidine-4-carboxamide] are 178 nM and 830 nM.
For `COc1cc(-c2cc(C(=O)N3CC[C@H](C(=O)NC4CCC(O)(C(F)(F)F)C(O)C4)CC34CC4)n[nH]2)c(F)cn1` (single isomer, unassigned) [Example 474-F], the AC50 at His6-TEV-PPARγ-(234-505) was 71.6 nM. Moreover, the IC50 with UM-UC-9 engineered cells is 2540 nM.
Taken in the same sequence, the figures for `COc1cc(-c2cc(C(=O)N3CC[C@H](C(=O)NCC4CCNCC4(F)F)CC34CC4)n[nH]2)c(F)cn1` (single isomer, unassigned) [Example 511-B] were 18.5 nM and 78.4 nM.
Taken in the same sequence, the figures for `COc1cc(-c2cc(C(=O)N3CC[C@H](C(=O)NC4CCN(CC(F)(F)CO)C4)CC34CC4)n[nH]2)c(F)cn1` (single isomer, unassigned) [Example 459-B] were 13.1 nM and 83.4 nM.
For the compound `COc1cc(-c2cc(C(=O)N3CC[C@H](C(=O)NCc4cccnc4C(F)(F)F)CC34CC4)[nH]n2)c(F)cn1` [Example 500, (S)-4-(3-(5-fluoro-2-methoxypyridin-4-yl)-1H-pyrazole-5-carbonyl)-N-((2-(trifluoromethyl)pyridin-3-yl)methyl)-4-azaspiro[2.5]octane-7-carboxamide], on His6-TEV-PPARγ-(234-505), the AC50 came to 7.5 nM. For the same compound, in the assay on UM-UC-9 engineered cells (Homo sapiens, UM-UC-9, 144 h), the IC50 worked out at 13.3 nM.

Values taken from US12606541B2, “PPARg modulators and methods of use” (Eisai R&D Management Co., Ltd., priority 2020, dated 2026).
